Where only a bound is given, the exact number is not on record here.

T1 sequence (O43353 1-299): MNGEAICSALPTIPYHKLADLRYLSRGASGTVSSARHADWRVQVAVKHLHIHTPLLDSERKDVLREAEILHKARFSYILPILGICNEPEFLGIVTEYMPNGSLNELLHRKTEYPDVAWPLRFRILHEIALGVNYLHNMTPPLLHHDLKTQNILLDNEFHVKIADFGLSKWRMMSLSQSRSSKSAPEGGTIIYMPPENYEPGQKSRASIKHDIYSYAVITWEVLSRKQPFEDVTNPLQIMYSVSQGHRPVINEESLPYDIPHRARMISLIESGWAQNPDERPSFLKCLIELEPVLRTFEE

This test addresses T1, recombinant hRIPK2 protein (kinase domain aa 1-299-His-tagged) (Homo sapiens, UniProt O43353).
T1 construct: kinase domain aa 1-299-His-tagged; purchased Life Technologies PR7829A
The test can be described thus: RIPK2 AlphaLISA assay (displacement of bead-bound CZC-8004 from hRIPK2). It is filed as binding. As to conditions: recombinant hRIPK2 kinase domain 10 nM, 2 h at 23° C. The method, boiled down: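 His-tagged kinase domain (10 nM, as diluted) was mixed with compound (0.8% DMSO), acceptor beads bearing the probe CZC-8004 and Ni2+ donor beads. After 2 h at 23 °C, AlphaLISA signal was read. Loss of signal reflects displacement of the probe from RIPK2.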
On to `CC#Cc1cc2cc(c1)-c1cnn3ccc(nc13)OC[C@@H]1C[C@@H](OC)C(=O)N1CCN2` [Example 88, (12R,14S)-12-methoxy-4-(prop-1-yn-1-yl)-16-oxa-7,10,20,21,24-pentaazapentacyclo[15.5.2.1^2,6.0^1°,^14.0^2°,^23]pentacosa-1(23),2,4,6(25),17(24),18,21-heptaen-11-one], for which the IC50 was under 10 nM. Consider `COc1cc2cc(c1)-c1cnn3ccc(nc13)OC[C@@H]1C[C@@H](OC)C(=O)N1CC(C)N2` (stereo partly drawn) [Example 89, (12R,14S)-4,12-dimethoxy-8-methyl-16-oxa-7,10,20,21,24-pentaazapentacyclo[15.5.2.1^2,6.0^1°,^14.0^2°,^23]pentacosa-1(23),2,4,6(25),17(24),18,21-heptaen-11-one], for which the IC50 is under 10 nM. Under `COc1cc2cc(c1)-c1cnn3ccc(nc13)OC[C@@H]1C[C@@H](O)C(=O)N1CCN2` [Example 90, (12R,14S)-12-hydroxy-4-methoxy-16-oxa-7,10,20,21,24-pentaazapentacyclo[15.5.2.1^2,6.0^1°,^14.0^2°,^23]pentacosa-1 (23),2,4,6(25),17(24),18,21-heptaen-11-one] stands under 10 nM; under `O=C1[C@H](OCC2COC2)C[C@H]2COc3ccn4ncc(c4n3)-c3cc(F)cc(c3)NCCN12` [Example 91, (12R,14S)-4-fluoro-12-(oxetan-3-ylmethoxy)-16-oxa-7,10,20,21,24-pentaazapentacyclo[15.5.2.1^2,6.0^1°,^14.0^2°,^23]pentacosa-1(23),2(25),3,5,17(24),18,21-heptaen-11-one], under 10 nM; under `[2H]C([2H])([2H])Oc1cn2ncc3c2nc1OC[C@@H]1C[C@@H](OC)C(=O)N1CCNc1cc(F)cc-3c1` [Example 92, (12R,14S)-4-fluoro-18-(^2H3)methoxy-12-methoxy-16-oxa-7,10,20,21,24-pentaazapentacyclo[15.5.2.1^2,6.0^1°,^14.0^2°,^23]pentacosa-1(23),2(25),3,5,17(24),18,21-heptaen-11-one], under 10 nM. As to `CO[C@@H]1C[C@H]2COc3ccn4ncc(c4n3)-c3cc(cc(-c4cnn(CCO)c4)c3)NCCN2C1=O` [Example 93, (12R,14S)-4-[1-(2-hydroxyethyl)-1H-pyrazol-4-yl]-12-methoxy-16-oxa-7,10,20,21,24-pentaazapentacyclo[15.5.2.1^2,6.0^1°,^14.0^2°,^23]pentacosa-1(23),2,4,6(25),17(24),18,21-heptaen-11-one], the IC50 fell in the range of 100 to 11000 nM.

For the molecule `[2H]C([2H])([2H])Oc1cc2cc(c1)-c1cnn3ccc(nc13)OC[C@@H]1C[C@@H](OCC)C(=O)N1CCN2` [Example 94, (12R,14S)-12-ethoxy-4-(^2H3)methoxy-16-oxa-7,10,20,21,24-pentaazapentacyclo[15.5.2.1^2,6.0^10,^14.0^20,^23]pentacosa-1(23),2(25),3,5,17(24),18,21-heptaen-11-one], the IC50 was under 10 nM.

Consider `CCO[C@@H]1C[C@H]2COc3ccn4ncc(c4n3)-c3cc(O)cc(c3)NCCN2C1=O` [Example 96, (12R,14S)-12-ethoxy-4-hydroxy-16-oxa-7,10,20,21,24-pentaazapentacyclo[15.5.2.1^2,6.0^1°,^14.0^2°,^23]pentacosa-1(23),2(25),3,5,17(24),18,21-heptaen-11-one], for which the IC50 was under 10 nM.

Turning to `COCCO[C@@H]1C[C@H]2COc3ccn4ncc(c4n3)-c3cc(O)cc(c3)NCCN2C1=O` [Example 97, (12R,14S)-4-hydroxy-12-(2-methoxyethoxy)-16-oxa-7,10,20,21,24-pentaazapentacyclo[15.5.2. 1^2,6.0^10,^14.0^20,^23]pentacosa-1(23),2,4,6(25),17(24),18,21-heptaen-11-one], the IC50 was under 10 nM.

Regarding `COCCO[C@@H]1C[C@H]2COc3ccn4ncc(c4n3)-c3cc(cc(C(C)=O)c3)NCCN2C1=O` [Example 98, (12R,14S)-4-acetyl-12-(2-methoxyethoxy)-16-oxa-7,10,20,21,24-pentaazapentacyclo[15.5.2.1^2,6.0^10,^14.0^20,^23]pentacosa-1(23),2,4,6(25),17(24),18,21-heptaen-11-one], the IC50 is under 10 nM. In the case of `COCCO[C@@H]1C[C@H]2COc3nc4c(cnn4cc3OC)-c3cc(cc(C(C)=O)c3)NCCN2C1=O` [Example 99, (12R,14S)-4-acetyl-18-methoxy-12-(2-methoxyethoxy)-16-oxa-7,10,20,21,24-pentaazapentacyclo[15.5.2.1^2,6.0^10,^14.0^20,^23]pentacosa-1(23),2(25),3,5,17(24),18,21-heptaen-11-one], the IC50 is under 10 nM. Regarding `COCC#Cc1cc2cc(c1)-c1cnn3ccc(nc13)OC[C@@H]1C[C@@H](OCCOC)C(=O)N1CCN2` [Example 100, (12R,14S)-12-(2-methoxyethoxy)-4-(3-methoxyprop-1-yn-1-yl)-16-oxa-7,10,20,21,24-pentaazapentacyclo[15.5.2.1^2,6.0^1°,^14.0^2°,^23]pentacosa-1(23),2(25),3,5,17(24),18,21-heptaen-11-one], the IC50 lay in the range of 10 to 100 nM. As for `COCCO[C@@H]1C[C@H]2COc3ccn4ncc(c4n3)-c3cc(cc(C(=O)C4CC4)c3)NCCN2C1=O` [Example 101, (12R,14S)-4-cyclopropanecarbonyl-12-(2-methoxyethoxy)-16-oxa-7,10,20,21,24-pentaazapentacyclo[15.5.2.1^2,6.0^1°,^14.0^2°,^23]pentacosa-1(23),2,4,6(25),17(24),18,21-heptaen-11-one], the IC50 was 100 to 11000 nM. As to `C=Cc1cc2cc(c1)-c1cnn3ccc(nc13)OC[C@@H]1C[C@@H](OCC)C(=O)N1CCN2` [Example 102, (12R,14S)-4-ethenyl-12-ethoxy-16-oxa-7,10,20,21,24-pentaazapentacyclo[15.5.2.1^2,6.0^1°,^14.0^2°,^23]pentacosa-1(23),2,4,6(25),17(24),18,21-heptaen-11-one], the IC50 was under 10 nM. With `O=C1[C@H](O)C[C@H]2COc3ccn4ncc(c4n3)-c3cc(F)cc(c3)NCCN12` [Example 104, (12R,14S)-4-fluoro-12-hydroxy-16-oxa-7,10,20,21,24-pentaazapentacyclo[15.5.2. 1^2,6.0^10,^14.0^20,^23]pentacosa-1(23),2(25),3,5,17(24),18,21-heptaen-11-one], the IC50 is under 10 nM. Regarding `CO[C@@H]1C[C@H]2COc3ccn4ncc(c4n3)-c3cc(cc(C(=O)NOC(C)C)c3)NCCN2C1=O` [Example 107, (12R,14S)-12-methoxy-11-oxo-N-(propan-2-yloxy)-16-oxa-7,10,20,21,24-pentaazapentacyclo[15.5.2.1^2,6.0^10,^14.0^20,^23]pentacosa-1(23),2,4,6(25),17(24),18,21-heptaene-4-carboxamide], the IC50 was 10 to 100 nM.

With `CO[C@@H]1C[C@H]2COc3ccn4ncc(c4n3)-c3cc(cc(C4CC4)c3)NCCN2C1=O` [Example 108, (12R,14S)-4-cyclopropyl-12-methoxy-16-oxa-7,10,20,21,24-pentaazapentacyclo[15.5.2.1^2,6.0^10,^14.0^20,^23]pentacosa-1(23),2,4,6(25),17(24),18,21-heptaen-11-one], the IC50 lay in the range of 100 to 11000 nM. For `CO[C@@H]1C[C@H]2COc3ccn4ncc(c4n3)-c3cc(cc(-c4ncno4)c3)NCCN2C1=O` [Example 109, (12R,14S)-12-methoxy-4-(1,2,4-oxadiazol-5-yl)-16-oxa-7,10,20,21,24-pentaazapentacyclo[15.5.2.1^2,6.0^1°,^14.0^2°,^23]pentacosa-1(23),2(25),3,5,17(24),18,21-heptaen-11-one], the IC50 is under 10 nM. On to `[2H]C([2H])([2H])C([2H])([2H])O[C@@H]1C[C@H]2COc3ccn4ncc(c4n3)-c3cc(cc(OC)c3)NCCN2C1=O` [Example 110, (12R,14S)-12-(H5)ethoxy-4-methoxy-16-oxa-7,10,20,21,24-pentaazapentacyclo[15.5.2. 1^2,6.0^10,^14.0^20,^23]pentacosa-1(23),2,4,6(25),17(24),18,21-heptaen-11-one], for which the IC50 is under 10 nM. Under `COCCO[C@@H]1C[C@H]2COc3nc4c(cnn4cc3C)-c3cc(cc(OC)c3)NCCN2C1=O` [Example 115, (12R, 14S)-4-methoxy-12-(2-16-oxa-7,10,20,21,24-pentaazapentacyclo[15.5.2. 1^2,6.0^10,^14.0^20,^23]pentacosa-1(23),2,4,6(25),17(24),18, 21-heptaen-11-one] stands under 10 nM; under `CO[C@@H]1C[C@H]2COc3ccn4ncc(c4n3)-c3cc(cc(-c4cn(C)nn4)c3)NCCN2C1=O` [Example 119, (12R,14S)-12-methoxy-4-(1-methyl-1H-1,2,3-triazol-4-yl)-16-oxa-7,10,20,21,24-pentaazapentacyclo[15.5.2.1^2,6.0^1°,^14.0^2°,^23]pentacosa-1(23),2,4,6(25),17(24),18,21-heptaen-11-one], 10 to 100 nM.

Consider `COc1cc2cc(c1)-c1cnn3ccc(nc13)OC[C@@H]1C[C@@H](OCC3CCO3)C(=O)N1CCN2` (stereo partly drawn) [Example 120, (12R,14S)-4-methoxy-12-(oxetan-2-ylmethoxy)-16-oxa-7,10,20,21,24-pentaazapentacyclo[15.5.2.1^2,6.0^1°,^14.0^2°,^23]pentacosa-1(23),2,4,6(25),17(24),18,21-heptaen-11-one], for which the IC50 is under 10 nM. The same measure for `CCO[C@H]1C[C@H]2COc3ccn4ncc(c4n3)-c3cc(cc(OC)c3)NCCN2C1=O` [Example 121, (12S,14S)-12-ethoxy-4-methoxy-16-oxa-7,10,20,21,24-pentaazapentacyclo[15.5.2.1^2,6.0^10,^14.0^20,^23]pentacosa-1(23),2,4,6(25),17(24),18,21-heptaen-11-one]: under 10 nM. On to `COCCO[C@@H]1C[C@H]2COc3nc4c(cnn4cc3OCC3(C)COC3)-c3cc(cc(OC)c3)NCCN2C1=O` [Example 122], for which the IC50 is under 10 nM. As to `COCCO[C@@H]1C[C@H]2COc3nc4c(cnn4cc3OCC3CC3)-c3cc(cc(OC)c3)NCCN2C1=O` [Example 123, (12R,14S)-18-(cyclopropylmethoxy)-4-methoxy-12-(2-methoxyethoxy)-16-oxa-7,10,20,21,24-pentaazapentacyclo[15.5.2. 1^2,6.0^10,^14.0^20,^23]pentacosa-1(23),2(25),3,5,17(24),18,21-heptaen-11-one], the IC50 is under 10 nM.

Broadly, the IC50 is the midpoint of a concentration-inhibition curve.

Source of the values: patent US12630563B2, “Macrocyclic RIP2-kinase inhibitors” (Oncodesign S.A., priority 2020, dated 2026).
